According to patent US8703428B2, “Single-cell label-free assay” (Corning Incorporated, priority 2007, dated 2014):

Molecular target: β2-adrenergic receptor (β2AR) (Homo sapiens, UniProt P07550)
Procedure: For kinetic assays, the cells were washed with HBSS (Hanks Balanced Salt Solution with 20 mM HEPES) buffer.

β2-adrenergic receptor (β2AR), sequence (P07550 whole entry): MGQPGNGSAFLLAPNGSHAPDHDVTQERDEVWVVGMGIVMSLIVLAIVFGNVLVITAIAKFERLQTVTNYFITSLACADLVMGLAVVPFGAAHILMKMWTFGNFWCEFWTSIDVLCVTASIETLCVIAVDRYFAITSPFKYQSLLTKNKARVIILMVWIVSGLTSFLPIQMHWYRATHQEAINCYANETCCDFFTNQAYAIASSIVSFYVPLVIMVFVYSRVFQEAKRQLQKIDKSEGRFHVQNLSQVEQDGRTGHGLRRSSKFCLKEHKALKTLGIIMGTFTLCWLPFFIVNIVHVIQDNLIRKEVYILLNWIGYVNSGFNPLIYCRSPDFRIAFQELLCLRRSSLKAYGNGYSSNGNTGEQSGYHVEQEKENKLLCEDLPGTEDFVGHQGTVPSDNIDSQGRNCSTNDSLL

CNC[C@H](O)c1ccc(O)c(O)c1 [epinephrine]
epinephrine-induced DMR signal (phases) (A431 cells): a small N-DMR, followed by a significant P-DMR event | epinephrine-induced DMR signal, dose dependence (A431 cells): dose-dependent DMR signal | distribution of DMR signals (P-DMR amplitude, transition time) (quiescent A431 cells, about 100% confluency, 2 nM epinephrine, pixel level): relatively tight distribution and are relatively homogenous
